Laboratory results reported in PubChem BioAssay AID330 (DTP/NCI, 2004).
Values joined by “and” are separate entries in the source; they are usually repeats but may differ in a detail not shown here. Identical values can stand only once. Inconclusive results and toxic doses are left out. The calls were made as follows: active = survival T/C of 150% or more; inactive = T/C below 125% in these data.

System: P388 leukemia ip, CD2F1 mice, survival T/C
Assay: NCI In Vivo Anticancer Drug Screen. Data for tumor model P388 Leukemia (intraperitoneal) in CD2F1 (CDF1) mice
Details: endpoint: median survival time, higher = longer survival
Method in brief: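 Mice carrying the transplanted tumor received test compound or vehicle. Survival was recorded in each group, and the value is the treated-group measurement divided by that of the vehicle-treated control group.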

[1] = dose: 50.0 mg/kg/injection, schedule: Q01DX005 (ip), vehicle: saline
[2] = dose: 100.0 mg/kg/injection, schedule: Q01DX005 (ip), vehicle: saline
[3] = dose: 50.0 mg/kg/injection, schedule: Q01DX005 (ip), vehicle: Klucel (hydroxypropylcellulose) (HPC)
[4] = dose: 100.0 mg/kg/injection, schedule: Q01DX005 (ip), vehicle: Klucel (hydroxypropylcellulose) (HPC)
[5] = dose: 200.0 mg/kg/injection, schedule: Q01DX005 (ip), vehicle: Klucel (hydroxypropylcellulose) (HPC)
[6] = dose: 25.0 mg/kg/injection, schedule: Q01DX009 (ip), vehicle: distilled water + Tween-80
[7] = dose: 50.0 mg/kg/injection, schedule: Q01DX009 (ip), vehicle: distilled water + Tween-80
[8] = dose: 100.0 mg/kg/injection, schedule: Q01DX009 (ip), vehicle: distilled water + Tween-80
[9] = dose: 200.0 mg/kg/injection, schedule: Q01DX009 (ip), vehicle: distilled water + Tween-80
[10] = dose: 100.0 mg/kg/injection, schedule: Q01DX001 (ip), vehicle: Klucel (hydroxypropylcellulose) (HPC)
[11] = dose: 200.0 mg/kg/injection, schedule: Q01DX001 (ip), vehicle: Klucel (hydroxypropylcellulose) (HPC)
[12] = dose: 400.0 mg/kg/injection, schedule: Q01DX001 (ip), vehicle: Klucel (hydroxypropylcellulose) (HPC)
[13] = dose: 25.0 mg/kg/injection, schedule: Q01DX009 (ip), vehicle: saline with Tween-80
[14] = dose: 50.0 mg/kg/injection, schedule: Q01DX009 (ip), vehicle: saline with Tween-80
[15] = dose: 100.0 mg/kg/injection, schedule: Q01DX009 (ip), vehicle: saline with Tween-80
[16] = dose: 50.0 mg/kg/injection, schedule: Q01DX005 (ip), vehicle: saline with Tween-80
[17] = dose: 100.0 mg/kg/injection, schedule: Q01DX005 (ip), vehicle: saline with Tween-80
[18] = dose: 200.0 mg/kg/injection, schedule: Q01DX005 (ip), vehicle: saline with Tween-80
[19] = dose: 100.0 mg/kg/injection, schedule: Q04DX002 (ip), vehicle: Klucel (hydroxypropylcellulose) (HPC)
[20] = dose: 200.0 mg/kg/injection, schedule: Q04DX002 (ip), vehicle: Klucel (hydroxypropylcellulose) (HPC)
[21] = dose: 400.0 mg/kg/injection, schedule: Q04DX002 (ip), vehicle: Klucel (hydroxypropylcellulose) (HPC)
[22] = dose: 50.0 mg/kg/injection, schedule: Q04DX003 (ip), vehicle: saline with Tween-80
[23] = dose: 100.0 mg/kg/injection, schedule: Q04DX003 (ip), vehicle: saline with Tween-80
[24] = dose: 60.0 mg/kg/injection, schedule: Q01DX005 (ip), vehicle: saline with Tween-80
[25] = dose: 120.0 mg/kg/injection, schedule: Q01DX005 (ip), vehicle: saline with Tween-80
[26] = dose: 240.0 mg/kg/injection, schedule: Q01DX005 (ip), vehicle: saline with Tween-80
[27] = dose: 200.0 mg/kg/injection, schedule: Q01DX009 (ip), vehicle: saline with Tween-80
[28] = dose: 200.0 mg/kg/injection, schedule: Q04DX003 (ip), vehicle: saline with Tween-80
[29] = dose: 200.0 mg/kg/injection, schedule: Q01DX005 (ip), vehicle: saline

Measured: T/C

C1CCC2CC3CCCCN3COC2CC1 (stereo not given)
inactive: [1] 116 % of control | [2] 118 % of control

Nc1nc(C2CCCCC2)cc(=O)[nH]1
inactive: [3] 87 % of control | [4] 97 % of control | [5] 97 % of control

O=C(CCl)Nc1nncs1
inactive: dose: 12.5 mg/kg/injection, schedule: Q01DX009 (ip), vehicle: distilled water + Tween-80 100 % of control | [6] 104 % of control | [7] 106 % of control | [8] 104 % of control | [9] 100 % of control

O=C(O)c1cn2c(n1)sc1ccccc12
inactive: [10] 97 % of control | [11] 92 % of control | [12] 96 % of control

Cc1ccc(SC2=C(Sc3ccc(C)cc3)C(=O)c3ccccc3C2=O)cc1
inactive: [13] 102 % of control and 88 % of control | [14] 116 % of control and 96 % of control | [15] 99 % of control and 123 % of control

CCN(CC)CCCC(C)N1CC2CCCCC2C1 (stereo not given)
inactive: [16] 106 % of control | [17] 108 % of control | [18] 107 % of control

CC1CCOBO1 (stereo not given)
inactive: [19] 98 % of control | [20] 101 % of control | [21] 98 % of control

CC(C)COP(=O)(OCC(C)C)OCC(C)C.CC(C)COP(=O)(OCC(C)C)OCC(C)C.CC(C)COP(=O)(OCC(C)C)OCC(C)C.CC(C)COP(=O)(OCC(C)C)OCC(C)C.O.O.[Co+2].[O-][Cl+3]([O-])([O-])O
inactive: dose: 25.0 mg/kg/injection, schedule: Q04DX003 (ip), vehicle: saline with Tween-80 94 % of control | [22] 99 % of control | [23] 114 % of control and 116 % of control

COc1cc2cc(c1Cl)NC(=O)CC(OC(=O)C(C)N(C)C(=O)C(C)C)C1(C)OC1C(C)C1CC(O)(NC(=O)O1)C(OC)/C=C/C=C(C)C2OC (stereo not given)
inactive: dose: 64.0 micrograms/kg/injection, schedule: Q01DX009 (ip), vehicle: distilled water + Tween-80 + alcohol 86 % of control
active: dose: 8.0 micrograms/kg/injection, schedule: Q01DX009 (ip), vehicle: distilled water + Tween-80 + alcohol 161 % of control | dose: 16.0 micrograms/kg/injection, schedule: Q01DX009 (ip), vehicle: distilled water + Tween-80 + alcohol 155 % of control and 179 % of control | dose: 32.0 micrograms/kg/injection, schedule: Q01DX009 (ip), vehicle: distilled water + Tween-80 + alcohol 154 % of control and 184 % of control

O=C(Nc1ccc(Nc2ccccc2)cc1)Nc1cc([N+](=O)[O-])ccc1Cl
inactive: [24] 90 % of control | [25] 98 % of control | [26] 103 % of control

CCOC(=O)C(NC(=O)c1ccccc1)C(C)(C)SCc1ccccc1 (stereo not given)
inactive: [16] 103 % of control | [17] 101 % of control | [18] 95 % of control

Cc1nc(O)c(-c2ccccc2)s1
inactive: [14] 104 % of control | [15] 105 % of control | [27] 92 % of control

CNC(=O)OCc1c(COC(=O)NC)c(-c2ccc(Cl)c(Cl)c2)n2c1Cc1ccccc1C2
inactive: [9] 117 % of control and 97 % of control
active: [6] 153 % of control and 160 % of control | [7] 155 % of control and 195 % of control | [8] 171 % of control and 189 % of control

CC(C)OC1NC(=O)Oc2ccccc21 (stereo not given)
inactive: [16] 104 % of control | [17] 110 % of control | [18] 113 % of control

CN1C(Sc2ccccc2)=NN(c2ccccc2)CN1c1ccccc1
inactive: [22] 93 % of control | [23] 97 % of control | [28] 88 % of control

CSc1nc(NC2OC(CO)C(O)C(O)C2O)c(Cl)c(=O)[nH]1 (stereo not given)
inactive: [24] 97 % of control | [25] 97 % of control | [26] 98 % of control

CN(C)CCOc1cccc2c1C(=O)c1ccccc1C2=O
inactive: dose: 12.5 mg/kg/injection, schedule: Q01DX009 (ip), vehicle: water 113 % of control | dose: 25.0 mg/kg/injection, schedule: Q01DX009 (ip), vehicle: water 105 % of control | dose: 50.0 mg/kg/injection, schedule: Q01DX009 (ip), vehicle: water 107 % of control | dose: 100.0 mg/kg/injection, schedule: Q01DX009 (ip), vehicle: water 109 % of control

CCOC(=O)NC(NC(=O)OCC)c1ccncc1
inactive: dose: 100.0 mg/kg/injection, schedule: Q04DX003 (ip), vehicle: saline 94 % of control | dose: 200.0 mg/kg/injection, schedule: Q04DX003 (ip), vehicle: saline 98 % of control | dose: 400.0 mg/kg/injection, schedule: Q04DX003 (ip), vehicle: saline 99 % of control

CCCCCCC(=O)/C=C/c1c(OC)cc(OC)cc1OC
inactive: [14] 101 % of control | [15] 101 % of control | [27] 97 % of control

Cc1ccc(S(=O)CC2=NC(C)(C)CO2)cc1 (stereo not given)
inactive: [1] 104 % of control | [2] 98 % of control | [29] 103 % of control

COc1ccc(-c2nc3c(=O)[nH]c(=O)n(C)c3nc2-c2ccc(OC)c(OC)c2)cc1OC
inactive: [19] 97 % of control | [20] 100 % of control | [21] 100 % of control

c1ccc(-c2cc(Nc3ccc4c(c3)OCO4)c3cc4c(cc3n2)OCO4)cc1
inactive: [3] 101 % of control | [4] 101 % of control | [5] 97 % of control

CCCCCn1c(Cl)c(C=O)c2ccccc21
inactive: [19] 97 % of control | [20] 98 % of control | [21] 100 % of control

c1ccc2c(C3N4CCCN3CC4)c[nH]c2c1 (stereo not given)
inactive: [13] 103 % of control and 104 % of control and 119 % of control | [14] 98 % of control and 106 % of control and 118 % of control | [15] 103 % of control and 114 % of control and 122 % of control | [27] 105 % of control and 95 % of control

O=C(O)CCC(Nc1ncnc2nc[nH]c12)C(=O)O (stereo not given)
inactive: [16] 92 % of control | [17] 97 % of control | [18] 89 % of control

Cn1c(=O)[nH]c(=O)c2nc(-c3ccccc3)c(-c3ccccc3)nc21
inactive: [10] 96 % of control | [11] 99 % of control | [12] 96 % of control

CC(C)(C)c1cc2c3c(c1)Oc1cc(C(C)(C)C)cc4c1C3(O)c1c(cc(C(C)(C)C)cc1O4)O2
inactive: dose: 1.56 mg/kg/injection, schedule: Q01DX005 (ip), vehicle: Klucel (hydroxypropylcellulose) (HPC) 107 % of control | dose: 3.12 mg/kg/injection, schedule: Q01DX005 (ip), vehicle: Klucel (hydroxypropylcellulose) (HPC) 104 % of control and 108 % of control | dose: 6.25 mg/kg/injection, schedule: Q01DX005 (ip), vehicle: Klucel (hydroxypropylcellulose) (HPC) 101 % of control and 110 % of control and 118 % of control | dose: 12.5 mg/kg/injection, schedule: Q01DX005 (ip), vehicle: Klucel (hydroxypropylcellulose) (HPC) 107 % of control and 111 % of control and 120 % of control | dose: 25.0 mg/kg/injection, schedule: Q01DX005 (ip), vehicle: Klucel (hydroxypropylcellulose) (HPC) 102 % of control

C[C@@H]1C[C@H]2C(=CC1=O)CC[C@@H]1[C@@H]2CC[C@]2(C)[C@@H](O)CC[C@@H]12
inactive: [23] 100 % of control | [28] 109 % of control | dose: 400.0 mg/kg/injection, schedule: Q04DX003 (ip), vehicle: saline with Tween-80 100 % of control

CCCC(=O)NC1C(Nc2ccc(S(=O)(=O)Nc3nc(C)cc(C)n3)cc2)OC(CO)C(O)C1O (stereo not given)
inactive: [1] 97 % of control | [2] 92 % of control | [29] 99 % of control

O=C(NC(Cc1ccc(O)cc1)C(=O)NC(Cc1c[nH]c2ccccc12)C(=O)O)OCc1ccccc1 (stereo not given)
inactive: [16] 106 % of control | [17] 103 % of control | [18] 106 % of control

CCOc1ccc(C(c2ccc(OCC)cc2)C(C)C)cc1
inactive: dose: 50.0 mg/kg/injection, schedule: Q01DX009 (ip), vehicle: suspension in saline 108 % of control | dose: 100.0 mg/kg/injection, schedule: Q01DX009 (ip), vehicle: suspension in saline 100 % of control | dose: 200.0 mg/kg/injection, schedule: Q01DX009 (ip), vehicle: suspension in saline 105 % of control
